Assay results taken from PubChem BioAssay AID1259407 (Chemical Carcinogenesis Research Information System (CCRIS), 2018).
Entries after “also recorded” stand apart in the source; their conditions may differ. Activity calls are given as the source filed them. No rule for the calls is given here.

Tested on: CCRIS mutagenicity, Ames/micronucleus/aberration tests
Assay: CCRIS mutagenicity studies
[1] = Test System: AMES SALMONELLA TYPHIMURIUM, Strain/Indicator: TA98, Metabolic Activation: NONE, Method: STANDARD PLATE
[2] = Test System: AMES SALMONELLA TYPHIMURIUM, Strain/Indicator: TA98, Metabolic Activation: RAT, LIVER, S-9, AROCLOR 1254, Method: STANDARD PLATE
[3] = Test System: AMES SALMONELLA TYPHIMURIUM, Strain/Indicator: TA100, Metabolic Activation: RAT, LIVER, S-9, AROCLOR 1254, Method: STANDARD PLATE
[4] = Test System: AMES SALMONELLA TYPHIMURIUM, Strain/Indicator: TA1535, Metabolic Activation: RAT, LIVER, S-9, AROCLOR 1254, Method: STANDARD PLATE
[5] = Test System: AMES SALMONELLA TYPHIMURIUM, Strain/Indicator: TA1537, Metabolic Activation: RAT, LIVER, S-9, AROCLOR 1254, Method: STANDARD PLATE
[6] = Test System: AMES SALMONELLA TYPHIMURIUM, Strain/Indicator: TA1538, Metabolic Activation: RAT, LIVER, S-9, AROCLOR 1254, Method: STANDARD PLATE
[7] = Test System: AMES SALMONELLA TYPHIMURIUM, Strain/Indicator: TA98, Metabolic Activation: RAT, LIVER, S-9, PHENOBARBITAL AND 5,6-BENZOFLAVONE, Method: PREINCUBATION
[8] = Test System: AMES SALMONELLA TYPHIMURIUM, Strain/Indicator: TA100, Metabolic Activation: NONE, Method: PREINCUBATION
[9] = Test System: AMES SALMONELLA TYPHIMURIUM, Strain/Indicator: TA100, Metabolic Activation: RAT, LIVER, S-9, PHENOBARBITAL AND 5,6-BENZOFLAVONE, Method: PREINCUBATION
[10] = Test System: AMES SALMONELLA TYPHIMURIUM, Strain/Indicator: TA100, Metabolic Activation: NONE, Method: STANDARD PLATE
[11] = Test System: AMES SALMONELLA TYPHIMURIUM, Strain/Indicator: TA1535, Metabolic Activation: NONE, Method: STANDARD PLATE
[12] = Test System: MOUSE LYMPHOMA, Strain/Indicator: L5178Y (TK+/TK-), Metabolic Activation: NONE, Method: SUSPENSION/PLATE

## C1=Cc2cc3c4ccccc4ccc3c3cccc1c23
[1]
  mutagenic call: inactive; negative
Test System: AMES SALMONELLA TYPHIMURIUM, Strain/Indicator: TA98, Metabolic Activation: RAT, LIVER, S-9, AROCLOR 1254 (0.127 OR 1.27 MG S-9 PROTEIN), Method: STANDARD PLATE
  mutagenic call: active; positive
[2]
  mutagenic call: active; positive
[3]
  mutagenic call: active; positive
[4]
  mutagenic call: inactive; negative
[5]
  mutagenic call: active; positive
[6]
  mutagenic call: active; positive

## C[C@@H]1NCCc2cc(O)c(O)cc21
End Point: IN VITRO CHROMOSOMAL ABERRATIONS, Test System: CHL FIBROBLAST CELLS, Metabolic Activation: NONE
  mutagenic call: active; positive
End Point: IN VITRO CHROMOSOMAL ABERRATIONS, Test System: CHL FIBROBLAST CELLS, Metabolic Activation: RAT, LIVER, S-9 (5%)
  mutagenic call: inactive; negative

## C[N+](C)(CF)CCO
Test System: Mouse lymphoma, Strain/Indicator: L5178Y (tk+/tk-), Metabolic Activation: None, Method: Suspension/plate
  mutagenic call: inactive; negative
Test System: Mouse lymphoma, Strain/Indicator: L5178Y (tk+/tk-), Metabolic Activation: Rat, Liver, S-9, Aroclor 1254, Method: Suspension/plate
  mutagenic call: inactive; negative

## Oc1cc2ccccc2c2cc3c(ccc4ccccc43)nc12
Test System: AMES SALMONELLA TYPHIMURIUM, Strain/Indicator: TA100, Metabolic Activation: GUINEA PIG, LIVER, S-9, 3-METHYLCHOLANTHRENE, Method: STANDARD PLATE
  mutagenic call: inactive; negative
Test System: CHINESE HAMSTER V-79, Strain/Indicator: V-79/6-THIOGUANINE, Metabolic Activation: GUINEA PIG, LIVER, S-9, 3-METHYLCHOLANTHRENE
  mutagenic call: inactive; negative

## Cc1c(N=O)cccc1[N+](=O)[O-]
Test System: AMES SALMONELLA TYPHIMURIUM, Strain/Indicator: TA98, Metabolic Activation: NONE, Method: PREINCUBATION
  mutagenic call: inactive; negative
[7]
  mutagenic call: inactive; negative
[8]
  mutagenic call: inactive; negative
[9]
  mutagenic call: inactive; negative

## COc1ccc2nc(S(=O)Cc3ncc(C)c(OC)c3C)[nH]c2c1 (stereo unspecified)
End Point: IN VITRO MICRONUCLEUS, Test System: AHH-1 CELLS, Metabolic Activation: NONE
  mutagenic call: active; positive
End Point: IN VITRO MICRONUCLEUS, Test System: HEPATOCYTES, Species: RAT, Strain/Sex: SPRAGUE-DAWLEY/FEMALE, Metabolic Activation: NONE
  mutagenic call: active; positive; at 33 mg dose in 50% of rats
End Point: IN VITRO MICRONUCLEUS, Test System: HUMAN LYMPHOCYTES, Metabolic Activation: NONE
  mutagenic call: active; positive (in 4/5 donors); also recorded: active; positive; only at 18 ug/ml and 1 of 2 donors
End Point: IN VITRO MICRONUCLEUS, Test System: MCL-5 CELLS, Metabolic Activation: NONE
  mutagenic call: active; positive
End Point: IN VIVO MICRONUCLEUS, Test System: BONE MARROW POLYCHROMATIC ERYTHROCYTES, Species: RAT, Strain/Sex: SPRAGUE-DAWLEY/FEMALE, Route: ORAL
  mutagenic call: inactive; negative; some increase but not statistically significant
End Point: IN VIVO MICRONUCLEUS, Test System: HEPATOCYTES, Species: RAT, Strain/Sex: SPRAGUE-DAWLEY/FEMALE, Route: ORAL
  mutagenic call: active; positive

## O=c1c2ccc(OCC3CO3)cc2sn1CC1CO1 (stereo unspecified)
[10]
  mutagenic call: active; positive

## N#CC(Cl)Cl
[1]
  mutagenic call: active; positive
[2]
  mutagenic call: active; positive
[7]
  mutagenic call: inactive; negative
Test System: AMES SALMONELLA TYPHIMURIUM, Strain/Indicator: TA100, Metabolic Activation: NONE, Method: FLUCTUATION TEST
  mutagenic call: active; positive
[8]
  mutagenic call: active; positive
[10]
  mutagenic call: active; positive
Test System: AMES SALMONELLA TYPHIMURIUM, Strain/Indicator: TA100, Metabolic Activation: RAT, LIVER, S-9, AROCLOR 1254, Method: FLUCTUATION TEST
  mutagenic call: active; positive
[3]
  mutagenic call: active; positive
[9]
  mutagenic call: active; positive
[11]
  mutagenic call: active; positive
[4]
  mutagenic call: active; positive

## C[C@@]1(CO)[C@H](O)CC[C@@]2(C)[C@H]1CC[C@H]1C[C@@H]3C[C@@]12CC[C@]3(O)CO
End Point: In vitro chromosomal aberrations, Test System: Human (male) peripheral blood lymphocytes, Metabolic Activation: None
  mutagenic call: active; positive
End Point: In vitro micronucleus, Test System: Human (male) peripheral blood lymphocytes, Metabolic Activation: None
  mutagenic call: active; positive; increased trend in all groups; effect depended on age and genetic stat
Test System: AMES SALMONELLA TYPHIMURIUM, Strain/Indicator: TA102, Metabolic Activation: NONE, Method: STANDARD PLATE
  mutagenic call: inactive; negative
Test System: AMES SALMONELLA TYPHIMURIUM, Strain/Indicator: TA102, Metabolic Activation: RAT, LIVER, S-9, AROCLOR 1254, Method: STANDARD PLATE
  mutagenic call: inactive; negative
[12]
  mutagenic call: active; positive
Test System: UDS RODENT HEPATOCYTES, Strain/Indicator: THY INCORP (NON-S-PHASE), Metabolic Activation: NONE, Method: AUTORADIOGRAPHY
  mutagenic call: inactive; negative

## CC1=CCC(C(C)(C)O)CC1 (stereo unspecified)
Test System: AMES SALMONELLA TYPHIMURIUM, Strain/Indicator: TA97A, Metabolic Activation: NONE, Method: STANDARD PLATE
  mutagenic call: inactive; negative
Test System: AMES SALMONELLA TYPHIMURIUM, Strain/Indicator: TA97A, Metabolic Activation: RAT LIVER S-9, AROCLOR 1254, Method: STANDARD PLATE
  mutagenic call: inactive; negative
Test System: AMES SALMONELLA TYPHIMURIUM, Strain/Indicator: TA98, Metabolic Activation: HAMSTER, LIVER, S-9, AROCLOR 1254, Method: STANDARD PLATE
  mutagenic call: inactive; negative
[1]
  mutagenic call: inactive; negative
Test System: AMES SALMONELLA TYPHIMURIUM, Strain/Indicator: TA98, Metabolic Activation: RAT LIVER S-9 AROCLOR 1254, Method: STANDARD PLATE
  mutagenic call: inactive; negative
[2]
  mutagenic call: inactive; negative
Test System: AMES SALMONELLA TYPHIMURIUM, Strain/Indicator: TA100, Metabolic Activation: HAMSTER, LIVER, S-9, AROCLOR 1254, Method: STANDARD PLATE
  mutagenic call: inactive; negative
[10]
  mutagenic call: inactive; negative
Test System: AMES SALMONELLA TYPHIMURIUM, Strain/Indicator: TA100, Metabolic Activation: RAT LIVER S-9, AROCLOR 1254, Method: STANDARD PLATE
  mutagenic call: inactive; negative
[3]
  mutagenic call: inactive; negative
Test System: AMES SALMONELLA TYPHIMURIUM, Strain/Indicator: TA1535, Metabolic Activation: HAMSTER, LIVER, S-9, AROCLOR 1254, Method: STANDARD PLATE
  mutagenic call: inactive; negative
[11]
  mutagenic call: inactive; negative
[4]
  mutagenic call: inactive; negative
Test System: AMES SALMONELLA TYPHIMURIUM, Strain/Indicator: TA1537, Metabolic Activation: HAMSTER, LIVER, S-9, AROCLOR 1254, Method: STANDARD PLATE
  mutagenic call: inactive; negative
Test System: AMES SALMONELLA TYPHIMURIUM, Strain/Indicator: TA1537, Metabolic Activation: NONE, Method: STANDARD PLATE
  mutagenic call: inactive; negative
[5]
  mutagenic call: inactive; negative
Test System: AMES SALMONELLA TYPHIMURIUM, Strain/Indicator: TA1538, Metabolic Activation: HAMSTER, LIVER, S-9, AROCLOR 1254, Method: STANDARD PLATE
  mutagenic call: inactive; negative
Test System: AMES SALMONELLA TYPHIMURIUM, Strain/Indicator: TA1538, Metabolic Activation: NONE, Method: STANDARD PLATE
  mutagenic call: inactive; negative
[6]
  mutagenic call: inactive; negative
[12]
  mutagenic call: inactive; negative. reevaluation of results: negative
Test System: MOUSE LYMPHOMA, Strain/Indicator: L5178Y (TK+/TK-), Metabolic Activation: RAT, LIVER, S-9, AROCLOR 1254, Method: SUSPENSION/PLATE
  mutagenic call: inactive; negative. reevaluation of results: negative

## CC(C)(C)c1cc(-c2ccccc2)ccc1NO
[1]
  mutagenic call: active; positive
Test System: AMES SALMONELLA TYPHIMURIUM, Strain/Indicator: TA98, Metabolic Activation: S-9, Method: STANDARD PLATE
  mutagenic call: active; positive
[10]
  mutagenic call: active; positive
Test System: AMES SALMONELLA TYPHIMURIUM, Strain/Indicator: TA100, Metabolic Activation: S-9, Method: STANDARD PLATE
  mutagenic call: active; positive
